In the supplement of paper PMC13380429:

Legend:
[1] = system: A549-ACE2 infected with SARS-CoV-2; assay: cell count relative to DMSO; higher = less toxic; details: 24 h
Caco-2 [2] = assay: cell viability relative to DMSO; higher = less toxic; details: 72 h
Calu-3 [3] = assay: as above; details: 72 h
HepG2 [4] = assay: as above; details: 72 h
U2OS [5] = assay: as above; details: 72 h
Vero E6 [6] = assay: as above; details: 72 h
[7] = system: A549-ACE2 infected with SARS-CoV-2; assay: SARS-CoV-2 infection rate relative to DMSO; higher = more infection; details: 24 h
A549-ACE2 [8] = assay: phospholipidosis EC50; higher = less potent phospholipidosis inducer
A549-ACE2 [9] = assay: drug-induced phospholipidosis relative to tamoxifen; higher = more phospholipidosis
[10] = system: A549-ACE2 infected with SARS-CoV-2; assay: morphology score (similarity to uninfected cells); higher = more like uninfected cells; details: 24 h
Caco-2 [11] = assay: relative viability EC50 (midpoint between 100% and the lowest measured viability); higher = less toxic; details: 72 h
HepG2 [12] = assay: as above; details: 72 h
U2OS [13] = assay: as above; details: 72 h
Vero E6 [14] = assay: as above; details: 72 h
Caco-2 [15] = assay: drug sensitivity score (DSS) for viability; higher = more toxic; extreme values may be limits of the assay; details: 72 h
Calu-3 [16] = assay: as above; details: 72 h
HepG2 [17] = assay: as above; details: 72 h
U2OS [18] = assay: as above; details: 72 h
Vero E6 [19] = assay: as above; details: 72 h
Calu-3 [20] = assay: relative viability EC50 (midpoint between 100% and the lowest measured viability); higher = less toxic; details: 72 h

C=CCN(C)CCCCCCOc1ccc(C(=O)c2ccc(Br)cc2)c(F)c1 [Ro-48-8071]
Details	SARS-CoV-2 infection rate [%]	cell count [%]	cell viability [%]	morphology score	phospholipidosis EC50 [µM]
A549-ACE2 [8], 24 h	–	–	–	–	3.35
A549-ACE2 [8], 48 h	–	–	–	–	4.65
A549-ACE2 [8], 72 h	–	–	–	–	5.61
Caco-2 [2], 1 nM	–	–	97.5	–	–
Caco-2 [2], 10 nM	–	–	101	–	–
Caco-2 [2], 100 nM	–	–	102	–	–
Caco-2 [2], 1000 nM	–	–	81.7	–	–
Caco-2 [2], 10000 nM	–	–	45.9	–	–
Calu-3 [3], 1 nM	–	–	95.1	–	–
Calu-3 [3], 10 nM	–	–	95.7	–	–
Calu-3 [3], 100 nM	–	–	97.4	–	–
Calu-3 [3], 1000 nM	–	–	99.7	–	–
Calu-3 [3], 10000 nM	–	–	55.3	–	–
HepG2 [4], 1 nM	–	–	104	–	–
HepG2 [4], 10 nM	–	–	98.3	–	–
HepG2 [4], 100 nM	–	–	92.1	–	–
HepG2 [4], 1000 nM	–	–	93.7	–	–
HepG2 [4], 10000 nM	–	–	34	–	–
U2OS [5], 1 nM	–	–	98.6	–	–
U2OS [5], 10 nM	–	–	102	–	–
U2OS [5], 100 nM	–	–	93.5	–	–
U2OS [5], 1000 nM	–	–	96	–	–
U2OS [5], 10000 nM	–	–	79	–	–
Vero E6 [6], 1 nM	–	–	104	–	–
Vero E6 [6], 10 nM	–	–	100	–	–
Vero E6 [6], 100 nM	–	–	100	–	–
Vero E6 [6], 1000 nM	–	–	94.6	–	–
Vero E6 [6], 10000 nM	–	–	84.5	–	–
[1], 0.3 µM	–	103	–	–	–
[1], 3 µM	–	114	–	–	–
[1], 10 µM	–	117	–	–	–
[1], 30 µM	–	70	–	–	–
[7], 0.3 µM	102	–	–	–	–
[7], 3 µM	59	–	–	–	–
[7], 10 µM	25	–	–	–	–
[7], 30 µM	38	–	–	–	–
[10], 0.3 µM	–	–	–	-0.04	–
[10], 3 µM	–	–	–	0.67	–
[10], 10 µM	–	–	–	0.73	–
[10], 30 µM	–	–	–	0.1	–

drug-induced phospholipidosis [%], A549-ACE2 [9]
Details	0.3 µM	0.833333 µM	3.33333 µM	6.66667 µM	10 µM	30 µM
24 h	2.62	7.33	44.1	86.2	90.2	82
48 h	5.45	7.84	36.4	96.4	115	–
72 h	4.46	5.92	27.7	95.3	127	–

Details	drug sensitivity score	relative viability EC50 [µM]
Caco-2 [11]	–	1.31
Caco-2 [15]	5.5	–
Calu-3 [16]	2.3	–
HepG2 [12]	–	2.38
HepG2 [17]	4.6	–
U2OS [13]	–	> 10
U2OS [18]	1.1	–
Vero E6 [14]	–	> 10
Vero E6 [19]	0.7	–

COc1ccc(C[C@H]2NC[C@H](O)[C@H]2OC(C)=O)cc1 [anisomycin]
Details	SARS-CoV-2 infection rate, [7] [%]	cell count, [1] [%]	cell viability, Caco-2 [2] [%]	cell viability, Calu-3 [3] [%]	cell viability, HepG2 [4] [%]	cell viability, U2OS [5] [%]	cell viability, Vero E6 [6] [%]	morphology score, [10]
1 nM	–	–	99.4	103	96.1	103	94.1	–
10 nM	–	–	87	97.9	98.5	95.6	93	–
0.1 µM	7	103	–	–	–	–	–	0.85
100 nM	–	–	58.5	67.4	39.4	53.4	34.1	–
0.3 µM	6	85	–	–	–	–	–	0.65
1 µM	18	64	–	–	–	–	–	0.48
1000 nM	–	–	24.8	35.1	11.8	5.4	9.8	–
3 µM	14	34	–	–	–	–	–	0.46
10000 nM	–	–	26.5	29.1	3.7	0.5	0.4	–

A549-ACE2 [9], 24 h
Details	drug-induced phospholipidosis [%]
0.3 µM	4.72
0.833333 µM	-0.99

Details	drug sensitivity score	relative viability EC50 [µM]
Caco-2 [11]	–	0.0691
Caco-2 [15]	18.9	–
Calu-3 [16]	16.1	–
Calu-3 [20]	–	0.117
HepG2 [12]	–	0.0728
HepG2 [17]	24.6	–
U2OS [13]	–	0.11
U2OS [18]	22.9	–
Vero E6 [14]	–	0.0614
Vero E6 [19]	25.9	–

CNC(=O)c1ccccc1Sc1ccc2c(/C=C/c3ccccn3)n[nH]c2c1 [axitinib]
Details	SARS-CoV-2 infection rate, [7] [%]	cell count, [1] [%]	cell viability, Caco-2 [2] [%]	cell viability, Calu-3 [3] [%]	cell viability, HepG2 [4] [%]	cell viability, U2OS [5] [%]	cell viability, Vero E6 [6] [%]	morphology score, [10]
1 nM	–	–	97.2	108	111	102	114	–
10 nM	–	–	108	102	97.7	104	106	–
100 nM	–	–	92	93.6	108	103	108	–
0.3 µM	92	105	–	–	–	–	–	0.34
1000 nM	–	–	97.8	86.7	92.2	105	101	–
3 µM	98	75	–	–	–	–	–	0.32
10 µM	96	77	–	–	–	–	–	0.35
10000 nM	–	–	72.5	81	71.8	74	94.2	–
30 µM	91	68	–	–	–	–	–	0.49

drug-induced phospholipidosis [%], A549-ACE2 [9]
Details	0.3 µM	0.833333 µM	3.33333 µM	6.66667 µM	10 µM	30 µM
24 h	2.86	4.48	16.8	10.3	7.44	17.1
48 h	1.43	3.96	7.83	7.9	8.63	15.9
72 h	4.56	4.58	–	–	–	–

Details	drug sensitivity score	relative viability EC50 [µM]
Caco-2 [15]	1.5	–
Calu-3 [16]	1.7	–
Calu-3 [20]	–	> 10
HepG2 [17]	2.3	–
U2OS [18]	0.8	–
Vero E6 [14]	–	> 10
Vero E6 [19]	0	–

C[C@H]1[C@H](NC(=O)/C(=N\OC(C)(C)C(=O)O)c2csc(N)n2)C(=O)N1S(=O)(=O)O [aztreonam]
Details	SARS-CoV-2 infection rate, [7] [%]	cell count, [1] [%]	cell viability, Caco-2 [2] [%]	cell viability, Calu-3 [3] [%]	cell viability, HepG2 [4] [%]	cell viability, U2OS [5] [%]	cell viability, Vero E6 [6] [%]	morphology score, [10]
1 nM	–	–	96.9	103	93	99.3	93	–
10 nM	–	–	91.7	99.8	108	93.9	95.2	–
100 nM	–	–	94.5	94.6	96.3	98.4	93.3	–
0.3 µM	105	102	–	–	–	–	–	0.12
1000 nM	–	–	96.2	95.6	101	97.6	96.1	–
3 µM	109	97	–	–	–	–	–	-0.22
10 µM	98	99	–	–	–	–	–	0.07
10000 nM	–	–	104	103	104	92.5	102	–
30 µM	93	107	–	–	–	–	–	0.28

drug-induced phospholipidosis [%], A549-ACE2 [9]
Details	0.3 µM	0.833333 µM	3.33333 µM	6.66667 µM	10 µM	30 µM
24 h	0.05	-0.48	-0.4	1.8	0.46	0.6
48 h	4.27	0.47	-0.36	-0.48	2.78	5.88
72 h	2.06	-3.37	-0.186	-0.381	3.05	4.25

Details	drug sensitivity score	relative viability EC50 [µM]
Caco-2 [11]	–	> 10
Caco-2 [15]	0	–
Calu-3 [16]	0	–
Calu-3 [20]	–	> 10
HepG2 [12]	–	> 10
HepG2 [17]	0	–
U2OS [13]	–	> 10
U2OS [18]	0	–
Vero E6 [14]	–	> 10
Vero E6 [19]	0	–
